Measured values: ChEMBL document CHEMBL5120926, “Isolation and Synthesis of Azuriaplysins A and B, Bromoditerpenes with an α-Methylene Carbonyl from the Sea Hare Aplysia kurodai” (J Nat Prod, 2022)

System: HeLa S3
Test: Cytotoxicity against human HeLa S3 cells assessed as inhibition of cell growth incubated for 72 hrs by MTT assay
Format: functional, cell-based

Structure (SMILES)	IC50 (hela s3) [µM]	IC50 (Homo sapiens, HeLa S3, 72 h) [µM]
C=C(C=O)CC[C@@H]1[C@@]2(C)CC[C@H](Br)C(C)(C)[C@@H]2CC[C@@]1(C)O (stereo in doubt; form 1)	40	
C=C(CC[C@@H]1[C@@]2(C)CC[C@H](Br)C(C)(C)[C@@H]2CC[C@@]1(C)O)C(=O)CO (stereo in doubt; form 1)		8.1
C=C(C=O)CC[C@@H]1[C@@]2(C)CC[C@H](Br)C(C)(C)[C@@H]2CC[C@@]1(C)O (stereo in doubt; form 2)	24	
C=C(CC[C@@H]1[C@@]2(C)CC[C@H](Br)C(C)(C)[C@@H]2CC[C@@]1(C)O)C(=O)CO (stereo in doubt; form 2)	5.2	
C=C(C=O)CC[C@@H]1[C@@]2(C)CC[C@H](Br)C(C)(C)[C@@H]2CC[C@@]1(C)O (stereo in doubt; form 3)	14	
C=C(CC[C@@H]1[C@@]2(C)CC[C@H](Br)C(C)(C)[C@@H]2CC[C@@]1(C)O)C(=O)CO (stereo in doubt; form 3)	4.1	
